Results published in ChEMBL document CHEMBL1201862, “PubChem BioAssay data set” (2004).
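48-hour exposure; five concentrations; linearly interpolated endpoints. GI50: concentration for 50% inhibition of growth.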 Activity calls are given as the source filed them. No stated cut-off is given here; in the data, active = GI50 up to about 1.1 µM and inactive = higher.

Legend:
Experiment in all cases: NCI anticancer screen, dose series, 48 h
KM12 = tested on: KM12
SR = tested on: SR
U-251 = tested on: U-251
SF-268 = tested on: SF-268
M14 = tested on: M14
SK-MEL-28 = tested on: SK-MEL-28
SW-620 = tested on: SW-620
MDA-MB-231 = tested on: MDA-MB-231
SN12C = tested on: SN12C
UACC-257 = tested on: UACC-257
OVCAR-3 = tested on: OVCAR-3
HOP-62 = tested on: HOP-62
IGROV-1 = tested on: IGROV-1
PC-3 = tested on: PC-3
A549 = tested on: A549
SK-OV-3 = tested on: SK-OV-3
HT-29 = tested on: HT-29
RPMI-8226 = tested on: RPMI-8226
RXF 393 = tested on: RXF 393
NCI-H23 = tested on: NCI-H23

Compound: CCC1c2[nH]c3ccccc3c2C[C@H]2C(=O)NC(CCCCNC(=O)OC(C)(C)C)C(=O)N12 (stereo not given in full)
- GI50 (KM12): 18.5 µM (inactive)
- GI50 (SR): 24.8 µM (inactive)
- GI50 (U-251): 38.5 µM (inactive)
- GI50 (SF-268): 45.1 µM (inactive)
- GI50 (M14): 17.5 µM (inactive)
- GI50 (SK-MEL-28): 41.1 µM (inactive)
- GI50 (SW-620): 47.2 µM (inactive)
- GI50 (MDA-MB-231): 32.7 µM (inactive)
- GI50 (SN12C): 27.5 µM (inactive)
- GI50 (UACC-257): 21.2 µM (inactive)
- GI50 (OVCAR-3): 18.4 µM (inactive)
- GI50 (HOP-62): 35.4 µM (inactive)
- GI50 (IGROV-1): 36.1 µM (inactive)
- GI50 (PC-3): 22.7 µM (inactive)
- GI50 (A549): 34.3 µM (inactive)
- GI50 (SK-OV-3): 55.8 µM (inactive)
- GI50 (HT-29): 30.5 µM (inactive)
- GI50 (RPMI-8226): 24.5 µM (inactive)
- GI50 (RXF 393): 30.5 µM (inactive)
- GI50 (NCI-H23): 25.9 µM (inactive)

Compound: CCOC(=O)Cn1c(=O)c2nc(SC)sc2n(CC)c1=S
- GI50 (KM12): > 100 µM (inactive)
- GI50 (SR): > 100 µM (inactive)
- GI50 (U-251): > 100 µM (inactive)
- GI50 (SF-268): > 100 µM (inactive)
- GI50 (M14): 5.78 µM (inactive)
- GI50 (SK-MEL-28): > 100 µM (inactive)
- GI50 (SW-620): > 100 µM (inactive)
- GI50 (MDA-MB-231): > 100 µM (inactive)
- GI50 (SN12C): > 100 µM (inactive)
- GI50 (UACC-257): > 100 µM (inactive)
- GI50 (OVCAR-3): > 100 µM (inactive)
- GI50 (HOP-62): > 100 µM (inactive)
- GI50 (IGROV-1): 94 µM (inactive)
- GI50 (PC-3): > 100 µM (inactive)
- GI50 (A549): > 100 µM (inactive)
- GI50 (SK-OV-3): > 100 µM (inactive)
- GI50 (HT-29): > 100 µM (inactive)
- GI50 (RPMI-8226): > 100 µM (inactive)
- GI50 (RXF 393): 36.8 µM (inactive)
- GI50 (NCI-H23): > 100 µM (inactive)

Compound: C=O.NNCCc1n[nH]c(=O)n1N
- GI50 (KM12): > 100 µM (inactive)
- GI50 (SR): > 100 µM (inactive)
- GI50 (U-251): > 100 µM (inactive)
- GI50 (SF-268): > 100 µM (inactive)
- GI50 (M14): > 100 µM (inactive)
- GI50 (SK-MEL-28): > 100 µM (inactive)
- GI50 (SW-620): > 100 µM (inactive)
- GI50 (MDA-MB-231): > 100 µM (inactive)
- GI50 (SN12C): > 100 µM (inactive)
- GI50 (UACC-257): > 100 µM (inactive)
- GI50 (OVCAR-3): > 100 µM (inactive)
- GI50 (HOP-62): > 100 µM (inactive)
- GI50 (IGROV-1): > 100 µM (inactive)
- GI50 (PC-3): > 100 µM (inactive)
- GI50 (A549): > 100 µM (inactive)
- GI50 (SK-OV-3): > 100 µM (inactive)
- GI50 (HT-29): > 100 µM (inactive)
- GI50 (RPMI-8226): > 100 µM (inactive)
- GI50 (RXF 393): > 100 µM (inactive)
- GI50 (NCI-H23): > 100 µM (inactive)

Compound: Oc1c(Br)cc(CN(Cc2cc(Br)c(O)c(Br)c2)C2CCCCC2)cc1Br
- GI50 (KM12): > 100 µM (inactive)
- GI50 (SR): > 100 µM (inactive)
- GI50 (U-251): > 100 µM (inactive)
- GI50 (SF-268): > 100 µM (inactive)
- GI50 (M14): > 100 µM (inactive)
- GI50 (SK-MEL-28): > 100 µM (inactive)
- GI50 (SW-620): > 100 µM (inactive)
- GI50 (MDA-MB-231): > 100 µM (inactive)
- GI50 (SN12C): > 100 µM (inactive)
- GI50 (UACC-257): > 100 µM (inactive)
- GI50 (OVCAR-3): > 100 µM (inactive)
- GI50 (HOP-62): > 100 µM (inactive)
- GI50 (IGROV-1): > 100 µM (inactive)
- GI50 (PC-3): > 100 µM (inactive)
- GI50 (A549): > 100 µM (inactive)
- GI50 (SK-OV-3): > 100 µM (inactive)
- GI50 (HT-29): > 100 µM (inactive)
- GI50 (RPMI-8226): > 100 µM (inactive)
- GI50 (RXF 393): > 100 µM (inactive)
- GI50 (NCI-H23): > 100 µM (inactive)

Compound: CC1(C)N=c2c(ncn2CCO)=C(C(N)=O)N1
- GI50 (KM12): > 100 µM (inactive)
- GI50 (SR): > 100 µM (inactive)
- GI50 (U-251): > 100 µM (inactive)
- GI50 (SF-268): > 100 µM (inactive)
- GI50 (M14): > 100 µM (inactive)
- GI50 (SK-MEL-28): > 100 µM (inactive)
- GI50 (SW-620): > 100 µM (inactive)
- GI50 (MDA-MB-231): > 100 µM (inactive)
- GI50 (SN12C): > 100 µM (inactive)
- GI50 (UACC-257): > 100 µM (inactive)
- GI50 (OVCAR-3): > 100 µM (inactive)
- GI50 (HOP-62): > 100 µM (inactive)
- GI50 (IGROV-1): > 100 µM (inactive)
- GI50 (PC-3): > 100 µM (inactive)
- GI50 (A549): > 100 µM (inactive)
- GI50 (SK-OV-3): > 100 µM (inactive)
- GI50 (HT-29): > 100 µM (inactive)
- GI50 (RPMI-8226): > 100 µM (inactive)
- GI50 (RXF 393): > 100 µM (inactive)
- GI50 (NCI-H23): > 100 µM (inactive)

Compound: CC(C)(C)OC(=O)N1C(C2=COc3ccccc3O2)=COc2cccnc21
- GI50 (KM12): 1.78 µM (inactive)
- GI50 (SR): 2.18 µM (inactive)
- GI50 (U-251): 1.73 µM (inactive)
- GI50 (SF-268): 1.5 µM (inactive)
- GI50 (M14): 1.79 µM (inactive)
- GI50 (SK-MEL-28): 1.74 µM (inactive)
- GI50 (SW-620): 2.01 µM (inactive)
- GI50 (MDA-MB-231): 1.81 µM (inactive)
- GI50 (SN12C): 1.71 µM (inactive)
- GI50 (UACC-257): 1.75 µM (inactive)
- GI50 (OVCAR-3): 1.72 µM (inactive)
- GI50 (HOP-62): 1.85 µM (inactive)
- GI50 (IGROV-1): 1.62 µM (inactive)
- GI50 (PC-3): 1.96 µM (inactive)
- GI50 (A549): 1.98 µM (inactive)
- GI50 (SK-OV-3): 1.81 µM (inactive)
- GI50 (HT-29): 1.91 µM (inactive)
- GI50 (RPMI-8226): 1.55 µM (inactive)
- GI50 (RXF 393): 1.62 µM (inactive)
- GI50 (NCI-H23): 1.61 µM (inactive)

Compound: CCCN(CCC)C(=S)N/N=C/c1cccc(C)n1
- GI50 (KM12): 0.107 µM (active)
- GI50 (SR): 0.0571 µM (active)
- GI50 (U-251): < 0.01 µM (active)
- GI50 (SF-268): 0.023 µM (active)
- GI50 (M14): < 0.01 µM (active)
- GI50 (SK-MEL-28): 0.778 µM (active)
- GI50 (SW-620): 0.054 µM (active)
- GI50 (MDA-MB-231): < 0.01 µM (active)
- GI50 (SN12C): 0.122 µM (active)
- GI50 (UACC-257): < 0.01 µM (active)
- GI50 (OVCAR-3): < 0.01 µM (active)
- GI50 (HOP-62): 0.195 µM (active)
- GI50 (IGROV-1): 0.0733 µM (active)
- GI50 (PC-3): 0.0773 µM (active)
- GI50 (A549): 0.108 µM (active)
- GI50 (SK-OV-3): 0.718 µM (active)
- GI50 (HT-29): < 0.01 µM (active)
- GI50 (RPMI-8226): 0.0239 µM (active)
- GI50 (RXF 393): 0.151 µM (active)
- GI50 (NCI-H23): 0.275 µM (active)
